Values quoted from earlier work as cited in patent US6426407B1, “Residues for binding third strands to complementary nucleic acid duplexes of any base pair sequence” (Codon Pharm., priority 1995, dated 2002).

Columns and labels:
[1] = tested on: center strand purine G; further: key: a '+' means the bases are complementary or correspondent; a '−' means they are not complementary or not correspondent
[2] = tested on: center strand purine A; further: key: a '+' means the bases are complementary or correspondent; a '−' means they are not complementary or not correspondent
[3] = tested on: homopolymer GC duplexes, homopolymer AT duplexes, and mixed base-pair duplexes with alternating AG in the center strand

Row | Compound | third strand base complementary to center strand purine [1] | third strand base complementary to center strand purine [2] | triplex formation [3]
1 | Nc1cc[nH]c(=O)n1 [C, cytosine] | + | − | 
2 | Nc1nc2nc[nH]c2c(=O)[nH]1 [G, guanine] | + | − | 
3 | OC[C@H]1O[C@@H](n2cnc3c(O)ncnc32)[C@H](O)[C@@H]1O [I, inosine] | + | + | forms triplexes
4 | Nc1ncnc2nc[nH]c12 [A, adenine] | − | + | 
